Reference: ChEMBL document CHEMBL1201862, “PubChem BioAssay data set” (2004)
One block for each compound: values may come before it. Calls of active or inactive are those of the source.

How the values were obtained:
[1] = HIV-1 AD8 envelope cell-cell fusion blockers – cherry-pick, dose response (AID 652062); format: functional, cell-based;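 also: luciferase signal from cell-cell fusion driven by HIV-1 clade B AD8 Env; potency is for inhibitors of fusion seen as a drop in luminescence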
[2] = blockers of HIV-1 envelope-mediated cell-cell fusion – cherry-pick, dose response (AID 652057); format: functional, cell-based
[3] = blockers of HIV-1 ZM109 envelope-driven cell-cell fusion – HeLa effector, CEM target cells, luciferase, cherry-pick, dose response (AID 652058); format: functional, cell-based;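 also: luciferase signal from HIV-1 Env mediated cell-cell fusion of effector and target cells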
[4] = off-target signal loss in HeLa-CEM21 co-culture – HeLa F-luc CTL cells, cherry-picked, counter-screen for HIV-1 Env fusion inhibitor project, dose response (AID 652040); format: functional, cell-based;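 also: potency for signal decrease marking cytotoxic or nonspecific inhibition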
cells = format: functional, cell-based
[5] = molecular target: T1, Nuclear receptor subfamily 0 group B member 1 (Homo sapiens, UniProt P51843); format: functional, cell-based;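 also: HEK293T cells transfected with SF-1 and DAX-1 plus StAR promoter luciferase reporter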
T1 sequence (P51843 whole entry): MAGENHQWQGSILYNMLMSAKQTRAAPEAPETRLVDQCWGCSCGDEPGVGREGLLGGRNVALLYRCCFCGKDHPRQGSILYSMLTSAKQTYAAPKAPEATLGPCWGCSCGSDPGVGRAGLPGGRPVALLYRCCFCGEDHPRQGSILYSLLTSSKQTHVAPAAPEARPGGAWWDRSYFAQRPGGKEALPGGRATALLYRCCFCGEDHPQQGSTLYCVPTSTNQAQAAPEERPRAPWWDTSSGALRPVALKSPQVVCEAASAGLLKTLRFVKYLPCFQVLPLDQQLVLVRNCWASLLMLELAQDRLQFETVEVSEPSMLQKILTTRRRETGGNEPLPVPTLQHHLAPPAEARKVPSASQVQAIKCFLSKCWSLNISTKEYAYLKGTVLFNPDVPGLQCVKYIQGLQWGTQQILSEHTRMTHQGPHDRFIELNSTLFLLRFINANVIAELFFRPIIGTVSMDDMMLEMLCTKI

Cytochrome P450 1A2 = molecular target: T2, Cytochrome P450 1A2 (Homo sapiens, UniProt P05177);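 also: PubChem cytochrome P450 panel assay, CYP1A2 panel member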
T2 sequence (P05177 whole entry): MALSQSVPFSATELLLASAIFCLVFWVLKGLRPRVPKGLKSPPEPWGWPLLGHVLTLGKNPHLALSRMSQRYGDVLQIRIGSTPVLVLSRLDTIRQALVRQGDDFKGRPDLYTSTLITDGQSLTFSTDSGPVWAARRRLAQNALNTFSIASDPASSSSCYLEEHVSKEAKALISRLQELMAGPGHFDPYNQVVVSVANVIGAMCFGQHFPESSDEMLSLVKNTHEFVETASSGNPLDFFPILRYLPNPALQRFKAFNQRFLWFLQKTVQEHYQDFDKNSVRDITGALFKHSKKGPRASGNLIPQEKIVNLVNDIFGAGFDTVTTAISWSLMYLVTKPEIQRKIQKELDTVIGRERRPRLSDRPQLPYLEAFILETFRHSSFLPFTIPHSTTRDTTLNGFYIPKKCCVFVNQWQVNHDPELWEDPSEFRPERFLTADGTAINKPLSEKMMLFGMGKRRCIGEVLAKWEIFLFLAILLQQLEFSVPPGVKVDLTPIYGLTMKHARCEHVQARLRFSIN

Cytochrome P450 2C9 = Cytochrome P450 2C9 (Homo sapiens, UniProt P11712)
Cytochrome P450 2D6 = Cytochrome P450 2D6 (Homo sapiens, UniProt P10635);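 also: CYP2D6 member of a cytochrome P450 panel assay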
[6] = molecular target: T3, Short transient receptor potential channel 4 (Mus musculus, UniProt Q9QUQ5); experiment: calcium entry via TRPC4 opening agents – cell-based, HEK293 TRPC4/mu-opioid, Fluo-4 calcium, dose response (AID 434937); format: functional
T3 sequence (Q9QUQ5 whole entry): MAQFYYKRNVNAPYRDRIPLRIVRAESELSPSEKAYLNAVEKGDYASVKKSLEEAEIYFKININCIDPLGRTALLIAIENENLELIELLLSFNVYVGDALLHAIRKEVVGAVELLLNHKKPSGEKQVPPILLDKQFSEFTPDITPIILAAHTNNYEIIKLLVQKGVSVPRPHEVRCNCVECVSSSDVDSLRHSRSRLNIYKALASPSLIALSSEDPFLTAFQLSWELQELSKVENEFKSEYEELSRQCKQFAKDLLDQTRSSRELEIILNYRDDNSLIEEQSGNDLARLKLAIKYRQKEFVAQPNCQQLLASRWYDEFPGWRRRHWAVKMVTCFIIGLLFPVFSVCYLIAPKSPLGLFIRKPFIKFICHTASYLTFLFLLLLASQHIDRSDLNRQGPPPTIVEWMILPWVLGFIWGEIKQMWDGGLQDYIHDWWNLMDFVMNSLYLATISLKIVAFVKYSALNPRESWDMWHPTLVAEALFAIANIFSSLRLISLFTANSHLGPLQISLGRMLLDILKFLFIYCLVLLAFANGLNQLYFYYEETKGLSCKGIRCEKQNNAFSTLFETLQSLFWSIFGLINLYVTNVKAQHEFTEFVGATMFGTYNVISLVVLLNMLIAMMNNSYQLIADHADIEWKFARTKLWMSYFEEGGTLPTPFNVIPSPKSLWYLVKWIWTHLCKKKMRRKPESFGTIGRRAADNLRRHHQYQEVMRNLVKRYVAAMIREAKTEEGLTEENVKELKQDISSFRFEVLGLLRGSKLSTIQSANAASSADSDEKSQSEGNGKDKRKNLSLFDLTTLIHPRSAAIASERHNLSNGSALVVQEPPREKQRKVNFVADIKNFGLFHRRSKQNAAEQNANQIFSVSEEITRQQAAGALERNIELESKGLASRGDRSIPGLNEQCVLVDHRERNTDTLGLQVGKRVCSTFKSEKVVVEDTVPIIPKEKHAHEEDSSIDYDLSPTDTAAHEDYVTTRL

Cytochrome P450 2C19 = Cytochrome P450 2C19 (Homo sapiens, UniProt P33261); experiment: Cytochrome panel assay with activity outcomes. Panel member name: p450-cyp2c19 Compounds with AC50 equal or less than 10 uM are considered active; format: functional; conditions: read-out: AC50
[7] = molecular target: T4, Corticotropin-releasing factor receptor 2/Corticotropin-releasing factor-binding protein (Homo sapiens, UniProt P24387+Q13324); experiment: activators of CRF receptor 2 with binding protein – uHTS hits, confirmation (AID 602473); format: functional; conditions: read-out: EC50_Mean
T4 sequence (Q13324 whole entry): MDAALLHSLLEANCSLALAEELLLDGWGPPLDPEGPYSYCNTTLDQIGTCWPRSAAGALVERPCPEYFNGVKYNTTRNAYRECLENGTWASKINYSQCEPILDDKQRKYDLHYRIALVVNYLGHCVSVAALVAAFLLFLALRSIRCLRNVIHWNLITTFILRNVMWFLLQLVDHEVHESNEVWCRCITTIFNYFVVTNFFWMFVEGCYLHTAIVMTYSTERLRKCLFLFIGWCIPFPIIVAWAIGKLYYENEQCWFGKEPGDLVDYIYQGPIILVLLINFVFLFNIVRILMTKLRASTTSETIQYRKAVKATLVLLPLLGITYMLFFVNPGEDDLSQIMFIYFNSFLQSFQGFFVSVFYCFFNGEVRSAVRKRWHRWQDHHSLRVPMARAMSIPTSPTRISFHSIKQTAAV
T4 sequence (P24387 whole entry): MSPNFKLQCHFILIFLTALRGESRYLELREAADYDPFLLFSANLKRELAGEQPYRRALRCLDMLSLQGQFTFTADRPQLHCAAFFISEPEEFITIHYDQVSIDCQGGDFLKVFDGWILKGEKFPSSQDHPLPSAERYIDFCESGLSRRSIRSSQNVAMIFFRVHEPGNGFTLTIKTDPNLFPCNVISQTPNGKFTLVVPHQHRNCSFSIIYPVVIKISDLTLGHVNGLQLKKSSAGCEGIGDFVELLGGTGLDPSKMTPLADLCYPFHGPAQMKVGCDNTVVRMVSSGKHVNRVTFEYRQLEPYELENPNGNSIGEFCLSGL

[8] = toxicity toward HepG2 liver cells – cell-based, plate reader, cherry-pick, antagonist series, cytotoxicity control, dose response (AID 743416); format: functional
HEK293 = experiment: EBV LMP1 TES2 canonical NF-kB signalling blockers – cell-based, HEK293, luciferase, cherry-pick, dose response (AID 588343); format: functional; conditions: Homo sapiens
[9] = blockade of melanocortin 4 receptor signaling – cell-based, plate reader, cherry pick, counter-screen for LGR2 antagonist project, dose response (AID 743444); format: functional;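 also: transfected HEK 293 cells stimulated with alpha-MSH peptide; potency of inhibitors of the alpha-MSH evoked signal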
[10] = blockers of bursicon-stimulated LGR2 cAMP reporter – cell-based, HEK293, CRE-luciferase reporter, cherry pick, set 2, dose response (AID 743343); format: functional;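 also: transfected cells were stimulated with diluted bursicon conditioned medium after compound addition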
[11] = A549 cell cytotoxicity, dose response, cytotoxicity control, plate reader, cherry-pick, antagonist series (AID 743412); format: functional, cell-based
H9c2 = experiment: cells; format: functional, cell-based; conditions: Rattus norvegicus, H9c2, Myocardium;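 also: confirmatory concentration-response retest of ultra-high-throughput screening hits for modulation of myocardial damage; cell death induced by hydrogen peroxide oxidative stress; compound pretreatment for 60 min then peroxide exposure for 2 h; potency is for protecting the cells against peroxide damage rather than for killing them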
Cytochrome P450 3A4 = Cytochrome P450 3A4 (Homo sapiens, UniProt P08684);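 also: CYP3A4 tested as one member of a cytochrome P450 panel screen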
[12] = intracellular Trypanosoma cruzi inhibitors in host cells – cell-based, plate reader, cherry-pick samples, set 3, dose response (AID 651818); format: functional;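 also: compounds incubated with infected cells for about four days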

Sequence of Cytochrome P450 2C9 (P11712 whole entry): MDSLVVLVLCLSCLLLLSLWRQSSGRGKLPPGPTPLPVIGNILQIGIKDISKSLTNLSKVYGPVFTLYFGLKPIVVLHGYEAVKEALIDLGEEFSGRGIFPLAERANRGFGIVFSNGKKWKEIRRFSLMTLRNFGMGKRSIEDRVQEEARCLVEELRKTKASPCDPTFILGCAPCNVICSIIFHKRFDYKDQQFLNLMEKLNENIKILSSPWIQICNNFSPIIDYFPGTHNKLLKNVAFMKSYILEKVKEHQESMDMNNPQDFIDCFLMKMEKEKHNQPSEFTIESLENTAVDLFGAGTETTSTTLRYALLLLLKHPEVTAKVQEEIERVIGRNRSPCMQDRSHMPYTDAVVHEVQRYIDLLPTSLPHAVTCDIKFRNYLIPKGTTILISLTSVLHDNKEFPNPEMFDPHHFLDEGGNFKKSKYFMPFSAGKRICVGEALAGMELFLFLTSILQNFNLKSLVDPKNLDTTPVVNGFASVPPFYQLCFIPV
Sequence of Cytochrome P450 2D6 (P10635 whole entry): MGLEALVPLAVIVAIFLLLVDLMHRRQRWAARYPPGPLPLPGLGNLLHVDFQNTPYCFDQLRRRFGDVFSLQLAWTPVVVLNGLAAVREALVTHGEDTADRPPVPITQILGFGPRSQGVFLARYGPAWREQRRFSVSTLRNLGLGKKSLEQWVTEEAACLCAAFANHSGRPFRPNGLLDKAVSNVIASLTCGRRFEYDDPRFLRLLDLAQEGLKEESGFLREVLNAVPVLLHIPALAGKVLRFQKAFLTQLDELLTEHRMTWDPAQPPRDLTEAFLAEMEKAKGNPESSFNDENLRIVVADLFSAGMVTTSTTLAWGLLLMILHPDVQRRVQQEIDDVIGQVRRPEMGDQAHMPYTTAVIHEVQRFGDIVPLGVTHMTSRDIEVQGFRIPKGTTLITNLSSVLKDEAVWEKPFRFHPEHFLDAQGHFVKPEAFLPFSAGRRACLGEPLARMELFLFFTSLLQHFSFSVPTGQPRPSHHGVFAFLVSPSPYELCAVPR
Sequence of Cytochrome P450 2C19 (P33261 whole entry): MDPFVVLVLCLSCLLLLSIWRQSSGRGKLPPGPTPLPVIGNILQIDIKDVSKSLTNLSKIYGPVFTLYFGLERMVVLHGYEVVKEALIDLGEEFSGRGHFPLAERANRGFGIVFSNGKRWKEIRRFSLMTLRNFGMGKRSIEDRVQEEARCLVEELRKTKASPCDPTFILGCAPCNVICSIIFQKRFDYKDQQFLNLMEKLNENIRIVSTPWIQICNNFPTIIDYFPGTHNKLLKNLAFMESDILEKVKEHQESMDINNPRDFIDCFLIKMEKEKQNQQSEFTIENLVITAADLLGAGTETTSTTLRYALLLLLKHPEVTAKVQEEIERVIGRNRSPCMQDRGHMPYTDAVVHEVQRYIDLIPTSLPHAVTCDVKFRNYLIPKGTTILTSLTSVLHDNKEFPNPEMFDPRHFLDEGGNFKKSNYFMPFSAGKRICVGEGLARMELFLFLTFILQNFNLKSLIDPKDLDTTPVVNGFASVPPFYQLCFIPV
Sequence of Cytochrome P450 3A4 (P08684 whole entry): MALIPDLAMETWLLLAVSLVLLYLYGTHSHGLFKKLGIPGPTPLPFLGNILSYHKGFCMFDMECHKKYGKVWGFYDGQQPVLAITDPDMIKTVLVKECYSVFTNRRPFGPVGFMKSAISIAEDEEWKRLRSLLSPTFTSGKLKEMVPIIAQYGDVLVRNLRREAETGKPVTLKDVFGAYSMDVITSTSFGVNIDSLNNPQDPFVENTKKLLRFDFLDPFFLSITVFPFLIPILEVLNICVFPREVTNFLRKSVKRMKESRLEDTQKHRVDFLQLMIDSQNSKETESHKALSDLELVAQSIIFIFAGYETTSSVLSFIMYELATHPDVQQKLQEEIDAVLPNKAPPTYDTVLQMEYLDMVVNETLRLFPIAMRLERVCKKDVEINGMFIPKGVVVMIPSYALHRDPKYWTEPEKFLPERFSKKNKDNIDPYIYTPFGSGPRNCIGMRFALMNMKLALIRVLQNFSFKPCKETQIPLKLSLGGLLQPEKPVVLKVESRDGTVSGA

Structure (SMILES): CCOC(=O)c1c(CSc2cccs2)n(C)c2cc(Br)c(O)c(CN(C)C)c12
AC50 [1]: 14.4 µM (active)
AC50 [2]: 1.62 µM (active)
AC50 [3]: 1.23 µM (active)
AC50 [4]: 2.08 µM (active)

Structure (SMILES): CCOc1cccc(/C=C/c2ccc3ccccc3n2)c1OC(C)=O
IC50 (cells): > 67.5 µM (inactive)
IC50 [5]: > 67.5 µM (inactive)

AC50 (Cytochrome P450 1A2): 7.08 µM (inconclusive)
AC50 (Cytochrome P450 2C9): inconclusive
Structure (SMILES): CC(C)NC(=O)COC(=O)c1cc(O)nc2ccccc12

AC50 (Cytochrome P450 2C9): inconclusive
AC50 (Cytochrome P450 2D6): 25.1 µM (inconclusive)
Structure (SMILES): COc1ccc(C(=O)CN2CCN(c3ccc(F)cc3)CC2)cc1OC

EC50 [6]: 2.37 µM (active)
Structure (SMILES): O=C(NCc1ccccc1)C1=C[C@@H](C2CCCCC2)C[C@@H](OCc2ccc(CO)cc2)O1

AC50 (Cytochrome P450 1A2): 17.8 µM (inconclusive)
AC50 (Cytochrome P450 2C9): inconclusive
AC50 (Cytochrome P450 2C19): 7.94 µM (inconclusive)
Structure (SMILES): CCc1cc(C(=O)NN=C(S)NCC2CCCO2)cs1 (configuration not stated)

EC50 [6]: 2.66 µM (active)
Structure (SMILES): CCCc1c(O)nc(SCCN(CCC)CCC)nc1O

EC50 [6]: 1.06 µM (active)
Structure (SMILES): CCN1CCN(c2ccc(S(=O)(=O)N3CCCCC3)cc2NC(=O)CC(C)c2ccccc2)CC1 (configuration not stated)

AC50 (Cytochrome P450 2C9): inconclusive
Structure (SMILES): CS(=O)(=O)N1CCC2(CC1)CN(c1cccc(-c3ccccc3)c1)C2

EC50 [6]: 5.96 µM (active)
Structure (SMILES): COc1ccc(CNCc2cn(-c3cccc(F)c3)nc2-c2ccc(C)o2)cc1

EC50 [6]: 5.31 µM (active)
Structure (SMILES): COC(=O)c1ccc(C(S)=NCC2(N(C)C)CCCCC2)cc1

AC50 (Cytochrome P450 2C9): inconclusive
AC50 (Cytochrome P450 2C19): 8.91 µM (inconclusive)
Structure (SMILES): Cc1ccc(-c2nc3c(=O)n(C)c4ccccc4c3o2)cc1

EC50 [7]: 2.77 µM (active)
EC50 [6]: 2.66 µM (active)
Structure (SMILES): CCOc1ccccc1N(CC(=O)N1CCOCC1)S(=O)(=O)c1ccc(SC)cc1

Structure (SMILES): COc1ccc2oc(C(=O)NCCc3ccccc3)c(C)c2c1
AC50 [8]: 12.7 µM (active)
AC50 (HEK293): 2.48 µM (active)
AC50 [9]: 8.65 µM (active)
IC50 (cells): > 67.5 µM (inactive)
AC50 [10]: 5.62 µM (active)
AC50 [11]: 8.39 µM (active)
IC50 [5]: > 67.5 µM (inactive)

Structure (SMILES): NC(=O)C1CCN(C(=O)c2cc3c(s2)CCCC3)CC1
IC50 (cells): > 67.6 µM (inactive)
IC50 [5]: > 67.6 µM (inactive)

Structure (SMILES): CCN(C[C@H]1N[C@@](C)(C(=O)OC)[C@H]2C(=O)N(Cc3ccccc3)C(=O)[C@@H]12)C(=O)c1ccc(C(C)(C)C)cc1
AC50 [1]: 16.8 µM (active)
IC50 (H9c2): > 79 µM (inactive)
AC50 [2]: 5.34 µM (active)
AC50 [3]: 4.92 µM (active)
AC50 [4]: 10.2 µM (active)

AC50 (Cytochrome P450 2C9): inconclusive
AC50 (Cytochrome P450 2D6): 22.4 µM (inconclusive)
AC50 (Cytochrome P450 3A4): 12.6 µM (inconclusive)
Structure (SMILES): Cc1cccc(NC(=O)CCSc2nc(C)cc(C)n2)c1

Structure (SMILES): C[C@@H]1CN([C@@H](C)CO)C(=O)c2cccc(NC(=O)c3nc4ccccc4s3)c2O[C@@H]1CN(C)CC1CCCCC1
AC50 [12]: 7.6 µM (active)

Structure (SMILES): C[C@@H]1CN([C@H](C)CO)C(=O)c2cccc(NC(=O)NC3CCCCC3)c2O[C@H]1CN(C)CC1CCCCC1
AC50 [12]: 2.5 µM (active)

Structure (SMILES): C[C@H](CO)N1C[C@H](C)[C@@H](CN(C)Cc2ccc(Oc3ccccc3)cc2)Oc2c(NC(=O)c3ccc(-c4nccs4)cc3)cccc2C1=O
AC50 [12]: 3.08 µM (active)

Structure (SMILES): C[C@H]1CN([C@@H](C)CO)C(=O)Cc2cc(NC(=O)Nc3ccc(F)cc3)ccc2O[C@@H]1CN(C)Cc1ccc(C(F)(F)F)cc1
AC50 [12]: 4.21 µM (active)

Structure (SMILES): C[C@@H]1CN([C@H](C)CO)C(=O)c2cccc(NS(=O)(=O)c3ccccc3)c2O[C@@H]1CN(C)Cc1ccc(C(=O)Nc2ccccc2N)cc1
AC50 [12]: 3.53 µM (active)

Structure (SMILES): C[C@@H]1CCCCO[C@H](CN(C)C(=O)Nc2ccc(F)cc2)[C@@H](C)CN([C@H](C)CO)C(=O)c2cc(NC(=O)Nc3ccc(F)cc3)ccc2O1
AC50 [12]: 5.89 µM (active)

Structure (SMILES): C[C@@H]1CN([C@@H](C)CO)S(=O)(=O)c2ccc(-c3cccc(F)c3)cc2O[C@@H]1CN(C)S(=O)(=O)c1ccccc1
AC50 [1]: 6.62 µM (active)
AC50 [2]: 0.597 µM (active)
AC50 [3]: 0.965 µM (active)

Structure (SMILES): C(=N\Nc1ccc2ccccc2n1)/c1ccc2c(c1)OCO2
AC50 (HEK293): 2.42 µM (active)
IC50 (cells): > 67.6 µM (inactive)
IC50 [5]: > 0.278 µM (active)
